Measurements from EP4623928A1, “GLP-1R ANTAGONISTS FOR THE TREATMENT OF CANCER” (Fiorina, Paolo, priority 2024, dated 2025).

Tested on: untransduced-mock and pmY-GLP-1R transduced CD3^+ T cells
Experiment: Transwell migration assay toward SDF-1, mock and pmY-GLP-1R transduced CD3+ T cells
Assay type: cell-based, murine
Details: both untransduced-mock and pmY-GLP-1R transduced CD3^+ T cells, Exe-4 (1 nM)
Protocol: Transwell migration assays were performed on GLP-1R^pos and GLP-1R^neg CD3^+ cells or respectively untransduced-mock CD3^+ T cells or pmY-GLP-1R transduced CD3^+ T cells, freshly isolated or activated with anti-CD3/CD28 (0.5 µg /ml each) in the presence or not of Exe-4 (1 nM). Chemotaxis assessments via transwell migration assay were performed using polycarbonate membranes with 5 µm pores (Corning) in accordance with the manufacturer's instructions and as previously published (42). Cells were washed, re-suspended in migration media (RPMI), and added to the upper chamber of the plate, while migration media containing 0 or 50 ng/mL SDF-1 (R&D Systems) was added to the bottom chamber. Treated cells were incubated over night at 37°C to migrate through the polycarbonate membrane into the bottom chamber. Input cell counts were obtained by flow cytometry with a BD FACSCelesta (BD, Biosciences) as well as cell counts of migrated cells in the lower chambers. Migration percentage was calculated as the number of cells in the lower chamber (migrated) compared to total input cell count for three separate wells. Mean migration percentages and standard deviations (SD) were calculated across the different donor cell lots. Analysis of lower chambers without SDF-1 (negative gradients) was used to control for any nonspecific increase in chemotaxis.

Exendin-4 [Exe-4]
migratory ability in response to SDF-1: reduced
